In patent publication US7332482B2, “Method for treating benign prostatic hyperplasia” (BioXell S.p.A., priority 2003, dated 2008):
“Also recorded” adds a separate entry of the source. Marks after values point to notes of the source that are not given here.

Experiments:
[1] = molecular target: T1, AR (Homo sapiens, UniProt P10275); experiment: [3H]R1881 binding assay on cytosol fractions of BPH fragments; set-up: from tissue; host or cells: human BPH prostatic tissue, cytosol fraction
T1 sequence (P10275 1-920): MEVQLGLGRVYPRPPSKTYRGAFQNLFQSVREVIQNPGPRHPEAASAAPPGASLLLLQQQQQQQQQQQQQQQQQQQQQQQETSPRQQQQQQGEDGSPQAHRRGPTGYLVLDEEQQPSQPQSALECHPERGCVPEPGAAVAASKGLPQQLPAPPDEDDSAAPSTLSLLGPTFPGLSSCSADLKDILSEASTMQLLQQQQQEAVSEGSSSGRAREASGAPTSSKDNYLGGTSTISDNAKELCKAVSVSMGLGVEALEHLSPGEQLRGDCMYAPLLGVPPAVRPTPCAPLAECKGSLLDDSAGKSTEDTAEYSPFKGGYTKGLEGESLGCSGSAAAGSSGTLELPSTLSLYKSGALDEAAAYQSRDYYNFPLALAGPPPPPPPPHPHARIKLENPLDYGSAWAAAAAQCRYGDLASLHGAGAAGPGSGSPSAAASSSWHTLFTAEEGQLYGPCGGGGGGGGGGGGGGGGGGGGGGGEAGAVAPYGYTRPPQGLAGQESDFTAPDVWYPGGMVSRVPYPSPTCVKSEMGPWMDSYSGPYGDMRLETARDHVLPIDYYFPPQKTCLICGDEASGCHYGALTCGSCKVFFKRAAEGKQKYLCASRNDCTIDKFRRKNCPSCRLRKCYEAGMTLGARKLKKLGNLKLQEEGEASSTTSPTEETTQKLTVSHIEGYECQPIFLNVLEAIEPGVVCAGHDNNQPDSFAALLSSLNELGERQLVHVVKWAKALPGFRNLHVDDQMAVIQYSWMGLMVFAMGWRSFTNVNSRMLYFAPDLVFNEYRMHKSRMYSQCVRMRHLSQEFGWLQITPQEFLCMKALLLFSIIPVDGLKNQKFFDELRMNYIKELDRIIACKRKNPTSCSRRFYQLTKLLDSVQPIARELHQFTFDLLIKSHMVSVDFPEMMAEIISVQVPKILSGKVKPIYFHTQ
Method: Prostatic tissues for binding assay were obtained from patients who underwent suprapubic adenomectomy for BPH. No pharmacological treatment was performed in the 3 months preceding surgery. After surgery, the tissues were immediately placed in liquid nitrogen and stored at −80° C. until processing.
Protein content was determined by the known method of Bradford, using BSA as a standard.

[2] = system: BPH cells; experiment: BPH cell proliferation assay; type: cell-based, human; settings: 48 h; for BPH cell proliferation increased by stimulus: T 10 nM or GF 10 ng/ml; for effect on DHT-stimulated BPH cell proliferation: DHT 10 nM; for effect on DHT-stimulated BPH cell proliferation / effect on T-stimulated BPH cell proliferation: Compound A 1 nM, F 1 nM, Cyp 100 nM; for effect on T-stimulated BPH cell proliferation: T 10 nM
Method: (§1) Human BPH cells, prepared, maintained and used as previously described in Crescioli C, et al. Journal of Clinical and Endocrinology Metabolism (2000) 85 p 2576-2583, were obtained from prostate tissues derived from 5 patients, who underwent suprapubic adenomectomy for BPH, after informed consent and approval by the Local Ethical Committee.
For all cell proliferation assay, 4×10^4 BPH cells were seeded onto 12-well plates in their growth medium, starved in red- and serum-free medium containing 0.1% BSA for 24 h, and then treated with specific stimuli for 48 h. Cells in phenol red- and serum-free medium containing 0.1% BSA were used as controls. Thereafter, cells were trypsinized, and each experimental point was derived from hemocytometer counting, averaging at least six different fields for each well, as previously reported (see Crescioli C, et al. Journal of Clinical and Endocrinology Metabolism (2000) 85 p 2576-2583). […] Growth assays were also carried out using a fixed concentration of androgens (10 nM) with or without Compound A (1 nM, 10 nM) or the anti-androgens finasteride (F, 1 nM) and cyproterone acetate (Cyp, 100 nM). Growth assays were also performed using a fixed concentration of T (10 nM) or GFs (10 ng/ml) with or without Compound A (10 nM). In the same experiment, each experimental point was repeated in triplicate or quadruplicate and experiments were performed 3 times. Results are expressed as % variation (mean±SEM) over the maximal T or GF-induced stimulation.

[3] = system: BPH cells; experiment: In situ end labeling (ISEL) of apoptotic BPH cells; type: cell-based, human; settings: for change in percentage of apoptotic nuclei vs untreated cells: 48 h, Compound A 10 nM, T 10 nM, GFs 10 ng/ml
Method: as §1
ISEL was performed onto BPH cells using Apop Tag in situ apoptosis detection kit peroxydase following the manufacturer's instruction. Cells were incubated with T (10 nM), KGF (10 ng/ml) or Des(1-3)IGF-I (10 ng/ml) with or without Compound A (10 nM). The percentage of apoptotic cells (the number of stained cells divided by the total number of cells) was calculated in at least five separate fields per slide in five different slides. Results are expressed as mean±SEM from three separate experiments.

[4] = molecular target: T2, 5α reductase type 1 (Homo sapiens, UniProt P18405); experiment: 5α reductase inhibition test in CHO 1827 cells; type: cell-based; settings: CHO cells transfected with type 1, n=3
T2 construct: host or cells: CHO 1827
T2 sequence (P18405 1-259): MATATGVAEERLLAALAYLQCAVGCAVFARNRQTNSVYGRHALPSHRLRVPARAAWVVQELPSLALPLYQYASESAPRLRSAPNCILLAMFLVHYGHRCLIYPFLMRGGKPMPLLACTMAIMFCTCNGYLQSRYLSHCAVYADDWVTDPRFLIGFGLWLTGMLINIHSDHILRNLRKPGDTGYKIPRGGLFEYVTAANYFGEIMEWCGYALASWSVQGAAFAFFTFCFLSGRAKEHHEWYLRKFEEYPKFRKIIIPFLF
Method: (§2) CHO-1827 and CHO-1829 cells, transfected with 5α reductase type 1 (5αR-1) or type 2 (5αR-2), respectively (see Steers W. Urology (2001) 58 p 17-24), were maintained in Ham's F12 medium supplemented with 5% FCS.
(§3) 5α reductase inhibition assay was performed using CHO 1827 cells, transfected with 5αR-1, or CHO 1829 cells, transfected with 5αR-2, as described (see Guarna A, et al. Journal of Medicinal Chemistry (2000) 43 3718-3735.). Compound A was added in a concentration range from 10^−9 to 10^−5 M, using finasteride as a control inhibitor in each experiment.

[5] = molecular target: T3, 5α reductase type 2 (Homo sapiens, UniProt P31213); experiment: 5α reductase inhibition test in CHO 1829 cells; type: cell-based; settings: CHO cells transfected with type 2, n=3
T3 construct: host or cells: CHO 1829
T3 sequence (P31213 1-254): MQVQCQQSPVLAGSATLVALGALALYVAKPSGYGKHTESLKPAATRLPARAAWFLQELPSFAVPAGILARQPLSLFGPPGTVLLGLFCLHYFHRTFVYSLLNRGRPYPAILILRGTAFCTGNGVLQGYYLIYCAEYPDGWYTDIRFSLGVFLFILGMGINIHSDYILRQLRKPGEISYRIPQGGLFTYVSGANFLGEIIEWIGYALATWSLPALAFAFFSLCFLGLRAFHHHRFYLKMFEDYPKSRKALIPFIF
Method: as §2, §3

[6] = system: rat ventral prostate; experiment: Clusterin expression (Northern, immunohistochemistry) and TUNEL in rat ventral prostate; type: in vivo; settings: orchidectomized T-supplemented rats; Compound A 300 and 100 μg/Kg, F 40 mg/Kg
Method: Total RNA was extracted using RNAFast from Molecular System (San Diego, Calif.). Blotting, labelling, hybridization conditions and probes (rat clusterin 1.5 Kb full-length cDNA and GAPDH 1.2 Kb full-length cDNA) were performed according to the reported procedures (Bettuzzi et al, Biochemical Journal, (1989), 257, p 293-296 and Marinelli et al, Biochemistry and Cell Biology, (1994), 72, p 515-521). Quantitation of the autoradiograms was obtained by densitometric scanning using an LKB Ultrascan XL densitometer.
All the cryostatic sections obtained from controls and treated rats were processed in parallel as previously described (Astancolle et al, Journal of Endocrinology, (2000), 167, p 197-204). For every experimental condition, 3 alternate sections from 3 different rat prostates were examined. […] Counterstaining was performed with haematoxylin, and cover slips were mounted with Eukitt (O. Kindler GmbH & Co, Germany). Digital high-magnification colour images were acquired by a CCD camera through the microscope.
DNA fragmentation in prostate cryostatic sections, assessed by terminal deoxynucleotidyl transferase (TdT)-mediated dUTP nick end-labelling (TUNEL), was performed using the In Situ Cell Death Detection Kit (POD, Roche) as recommended by the manufacturer. TUNEL positive apoptotic nuclei were documented by digital high-magnification colour images acquired by a CCD camera through the microscope. Counterstaining was performed with eosin, and cover slips were mounted with Eukitt (O Kindler GmbH & Co, Germany).

Molecule: C[C@]1(O)CC[C@H]2[C@@H]3CCC4=CC(=O)CCC4=C3C=C[C@@]21C [Compound R1881, reference compound]
- competition for [3H]-R1881 binding [1]: completely displaced

Molecule: C[C@]12CC[C@H]3[C@@H](CCC4=CC(=O)CC[C@@]43C)[C@@H]1CC[C@@H]2O [T, testosterone, reference compound]
- BPH cell proliferation increased by stimulus [2]: 156±8%
- change in percentage of apoptotic nuclei vs untreated cells [3]: −27%

Molecule: C=C1/C(=C\C=C2/CCC[C@]3(C)[C@@H]([C@H](C)CCCC(C)(C)O)CC[C@@H]23)C[C@@H](O)C[C@@H]1O [calcitriol, 1,25-dihydroxyvitamin D3, reference compound]
- IC50 ([2]; Homo sapiens, read-out: −log IC50, inhibition of BPH cell growth (converted)): 0.0631 nM
- maximal inhibition (Imax) of BPH cell growth ([2]; unstimulated BPH cells, Imax shared by both secosteroids): 43±1%

Molecule: CC(=O)O[C@]1(C(C)=O)CC[C@H]2[C@@H]3C=C(Cl)C4=CC(=O)[C@@H]5C[C@@H]5[C@]4(C)[C@H]3CC[C@@]21C [cyproterone acetate, reference compound]
- effect on DHT-stimulated BPH cell proliferation [2]: significantly blocked
- effect on T-stimulated BPH cell proliferation [2]: significantly blocked

Molecule: CC(C)(C)NC(=O)[C@H]1CC[C@H]2[C@@H]3CC[C@H]4NC(=O)C=C[C@]4(C)[C@H]3CC[C@]12C [finasteride, 17β-(N,t-butyl)carbamoyl-4-aza-5α-androst-1-en-3-one, reference compound]
- effect on DHT-stimulated BPH cell proliferation [2]: effective only against T
- effect on T-stimulated BPH cell proliferation [2]: antagonized only T-induced cell growth; also recorded: effective only against T
- IC50 [4]: 659 ± 100 nM
- IC50 [5]: 53.7 ± 11 nM
- clusterin mRNA expression in ventral prostate (Northern) [6]: partially blunted the T-induced down-regulation of clusterin gene expression

B1: KGF: Keratinocyte growth factor from Pepro Tech EC (protein, UniProt P21781 32-194, looked up)
Fibroblast growth factor 7: CNDMTPEQMATNVNCSSPERHTRSYDYMEGGDIRVRRLFCRTQWYLRIDKRGKVKGTQEMKNNYNIMEIRTVAVGIVAIKGVESEFYLAMNKEGKLYAKKECNEDCNFKELILENHYNTYASAKWTHNGGEMFVALNQKGIPVRGKKTKKEQKTAHFLPMAIT
- BPH cell proliferation increased by stimulus [2]: 183±5%
- change in percentage of apoptotic nuclei vs untreated cells [3]: −54%
- Apoptotic index (%) ([3]; GF 10 ng/ml or T 10 nM alone, ISEL): 8.5 ± 0.42^a %
